Test results published in publication PMC3140774 (Journal of Medicinal Chemistry, 2011).

Legend:
[1] = tested on: bloodstream form T. brucei (strain 427); experiment: Trypanocidal assay, growth inhibition of cultured bloodstream-form T. brucei; assay type: cell-based, Trypanosoma brucei; conditions: for times higher activity than C-methyl analogue 7c / times higher activity than the parent 7a: free base form
[2] = tested on: T. cruzi epimastigotes (CL Brener clone); experiment: Growth inhibition of T. cruzi epimastigotes; assay type: cell-based, Trypanosoma cruzi; conditions: free base
[3] = tested on: procyclic (insect form) T. brucei; experiment: Activity against cultured procyclic; assay type: cell-based, Trypanosoma brucei
[4] = tested on: Bloodstream-form T. brucei; conditions: cited from earlier work

O=C1CNC2(C(=O)N1)C1CC3CC(C1)CC2C3 (stereo not shown) [6a]
inhibition of parasite growth, preliminary screen ([1]; 5 μg mL^–1, bloodstream-form T. brucei): inactive

CN1CC(=O)N(CC(=O)NO)C(=O)C12C1CC3CC(C1)CC2C3 (stereo not shown) [7b]
fold lower potency of hydrochloride versus free base ([1]; bloodstream-form T. brucei): 1.8 fold
fold decrease in activity against T. brucei compared with 7a ([1]; free base, bloodstream form): 2.1 fold
fold more potent against T. cruzi than 7a [2]: 1.5 fold

C[C@@H]1NC2(C(=O)N(CC(=O)NO)C1=O)C1CC3CC(C1)CC2C3 (stereo partly shown) [7c]
fold lower potency of hydrochloride versus free base ([1]; bloodstream-form T. brucei): 3 fold
fold decrease in activity against T. brucei compared with 7a ([1]; free base, bloodstream form): 1.5 fold

O=C(CN1C(=O)[C@H](Cc2ccccc2)NC2(C1=O)C1CC3CC(C1)CC2C3)NO (stereo partly shown) [7d]
fold lower potency of hydrochloride versus free base ([1]; bloodstream-form T. brucei): 6.2 fold
times higher activity than C-methyl analogue 7c ([1]; bloodstream form): 8–20 fold
times higher activity than the parent 7a ([1]; bloodstream form): 5.3–13 fold
factor less potent than 7e (R-enantiomer) ([1]; tested as hydrochloride salts): 4.6 fold
factor less potent than 8 (racemic mixture) ([1]; tested as hydrochloride salts): 2.3 fold
fold more potent against T. cruzi than 7a [2]: 26 fold
times more resistant: procyclic versus bloodstream-form T. brucei [3]: 10–50 fold

O=C(CN1C(=O)[C@@H](Cc2ccccc2)NC2(C1=O)C1CC3CC(C1)CC2C3)NO (stereo partly shown) [7e]
times higher activity than C-methyl analogue 7c ([1]; bloodstream form): 8–20 fold
times higher activity than the parent 7a ([1]; bloodstream form): 5.3–13 fold
times more resistant: procyclic versus bloodstream-form T. brucei [3]: 10–50 fold

O=C(CN1C(=O)CNC2(CCCCCCC2)C1=O)NO [9a]
fold decrease in activity against T. brucei compared with 7a ([1]; free base, bloodstream form): 3.3 fold

CN1CC(=O)N(CC(=O)NO)C(=O)C12CCCCCCC2 [9b]
fold more potent against T. brucei than 9a ([1]; free base, bloodstream form): 1.9 fold

C[C@@H]1NC2(CCCCCCC2)C(=O)N(CC(=O)NO)C1=O [9c]
fold more potent against T. brucei than 9a ([1]; free base, bloodstream form): 2.4 fold

O=C(CN1C(=O)[C@H](Cc2ccccc2)NC2(CCCCCCC2)C1=O)NO [9d]
fold more potent against T. brucei than 9a ([1]; free base, bloodstream form): 10 fold
times more trypanocidal activity than C-methyl counterpart 9c ([1]; free base, bloodstream form): 4.3 fold

O=C(CN1C(=O)CNC2(CCCCCC2)C1=O)NO [10a]
fold decrease in activity against T. brucei compared with 7a ([1]; free base, bloodstream form): 21 fold

CN1CC(=O)N(CC(=O)NO)C(=O)C12CCCCCC2 [10b]
times more potent against T. brucei than 10a ([1]; free base, bloodstream form): 6.6 fold

O=C1ON=C2C3CC4CC(C3)CC12C4 [compound 3]
potency fold greater than amantadine ([4]; T. brucei in vitro): at least 45 fold

O=C(CN1C(=O)C(Cc2ccccc2)NC2(C1=O)C1CC3CC(C1)CC2C3)NO (stereo not shown) [compound 8]
times higher activity than C-methyl analogue 7c ([1]; bloodstream form): 8–20 fold
times higher activity than the parent 7a ([1]; bloodstream form): 5.3–13 fold
times more resistant: procyclic versus bloodstream-form T. brucei [3]: 10–50 fold

CC(N)C12CC3CC(CC(C3)C1)C2 (stereo not shown) [rimantadine]
IC50 ([4]; read-out: IC50 bloodstream-form T. brucei, in vitro): 7 µM
